Data reported in US7183320B2, “Benzoylsulfonamides and sulfonylbenzamidines for use as antitumour agents” (Eli Lilly and Company, priority 2002, dated 2007).

Assays:
[1] = test system: bFGF-induced neoangiogenesis; experiment: Rat corneal micropocket assay, bFGF disks; type: in vivo; conditions: 160 mg/kg orally by gavage once per day, days 1 through 10; Fisher 344 female rats
Protocol: Rat Corneal Micropocket Assay
Fisher 344 female rats (145–155 grams; Taconic, Inc., Germantown, N.Y.) were anesthesized with acepromazine (2.5 mg/kg, ip) 20 minutes prior to initiation of 2–3% isoflurane/oxygen inhalation. The body temperature was maintained with a circulating hot water pad. The surgery was performed using an ophthalmic operating microscope (OMS.75 Operating Microscope, TopCon Corporation, Japan). A scalpel blade (#15) was used to make a vertical half-thickness linear corneal incision just lateral to the center of the eye. […] A pocket was formed in the cornea using blunt dissection with corneal scissors (Roboz, Rockville, Md.). Nitrocellulose filters ([…], Millipore, Bedford, Mass.) were cut into small disks using a 20 gauge needle punch. The disks were soaked in 2 μl of human VEGF solution ([…]; R&D Systems) or human basic fibroblast growth factor (0.20 μg/μl; R&D Systems) for 10 minutes on ice. Using forceps, the disks impregnated with the angiogenic factor (VEGF or bFGF) were inserted into the corneal pocket so that the disk is firmly covered with corneal epithelium. […] The images were analyzed by converting the area of interest to high contrast black and white reversed image and counting the bright pixels as a determination of the vascular area. […]

[2] = test system: HUMAN COLON ADENOCARCINOMA-HCT116; experiment: Early stage human colon adenocarcinoma HCT116 xenograft (Table IV); type: in vivo; conditions: Balb/C SCID female mice
From the text: Conventional Murine Tumor and Human Tumor Xenouraft Assays
Inhibition of tumors transplanted into mice is an accepted procedure for studying the efficacy of antitumor agents (Corbett, et al., In vivo Methods for Screening and Preclinical Testing; Use of rodent solid tumors for drug discovery., In: Anticancer Drug Development Guide: Preclinical Screening, Clinical Trials, and Approval, B. Teicher (ed), Humana Press Inc., Totowa, N.J., Chapter 5, pages 75–99 (1997); (Corbett, et al., Int., J. Parmacog., 33, Supplement, 102–122 (1995)). Murine tumors or human xenographs were implanted essentially as described by Corbett in In vivo Methods for Screening and Preclimical Testing; Use of rodent solid tumors for drug discovery. Briefly, the murine tumor or human xenograph was implanted subcutaneously using either 12-gauge trocar implants or counted number of cells. The location for the trocar insertion is midway between the axillary and inguinal region along the side of the mouse. The trocar is slipped approximately ¾ of an inch subcutaneously up toward the axilla before discharging the tumor fragment, and pinching the skin as the trocar is removed., Alternatively, human tumor cells prepared from a […] of donor tumors (5×10^6 cells) were implanted subcutaneously in a hind-leg of a male or female nude mouse (Charles River). Either a test compound in vehicle or vehicle alone was administered by intravenous bolus injection (iv), intraperitoneal injection (ip), or oral gavage (po). Each treatment group, as well as a group of untreated control animals, consisted of five animals per group in each experiment. Subcutaneous tumor response was monitored by tumor volume measurement performed twice each week over the course of the experiment (60–120 days). Body weights were taken as a general measure of toxicity. The subcutaneous tumor data were analyzed by determining the median tumor weight for each treatment group over the course of the experiment and calculating the tumor growth delay as the difference in days for the treatment versus the control tumors to reach a volume of either 500 or 1000 mm^3.
The compound of Example 110 was tested against a variety of murine and human tumors substantially as described supra. The parameters measured in each experiment are summarized in the following paragraphs. • Tumor Weight(mg)=(a×b^2)/2 where a=tumor length (mm) and b=tumor width (mm). • Tumor Growth Delay=T−C where T is the median time (days) required for the treatment group tumors to reach a predetermined size, and C is the median time (days) for the control group tumors to reach the same size. Tumor-free survivors are excluded from this calculation, and are tabulated separately (Tumor Free).
[formula] • where Tumor Growth Delay is as previously defined and Td is tumor volume doubling time (days), estimated from the best fit straight line from a log-linear growth plot of the control group of tumors in exponential growth (100–800 mg range) • % T/C mass—The treatment and control groups are measured when the control group tumors reach approximately 700 to 1200 mg in size (median group). The median tumor weight of each group is determined (including zeros). The T/C value in percent is an indication of antitumor effectiveness. A T/C≦42% is considered significant antitumor activity. A T/C<10% is considered to indicate highly significant antitumor activity. • Body Weight Loss Nadir—A body weight loss nadir (mean of group) of greater than 20% or drug deaths greater than 20% are considered to indicate an excessively toxic dosage in single course trials. • Activity Rating—the Activity Rating is derived from the Log Kill according to the following table: […]

[3] = total dose 280 mg/kg: 70 mg/kg/injection IV on days 3, 4, 5, and 9
[4] = total dose 560 mg/kg: 140 mg/kg/injection IV on days 3, 4, 5, and 9

## O=C(NS(=O)(=O)c1ccccc1)c1ccc(Cl)cc1Cl [Example 110, N-[2,4-dichlorobenzoyl]phenylsulfonamide]
[1]
  inhibition of bFGF-induced neoangiogenesis: not an effective inhibitor
[2]; [3]
  % BODY WT LOSS AT NADIR: 0%
  % T/C MASS: 0%
  ACTIVITY RATING: ++++ (HIGHLY ACTIVE >2.8)
  DRUG DEATHS: 0/5
  GROWTH DELAY: 28 days
  LOG KILL: 3.4
  TUMOR FREE AT DAY 115: 2/5
[2]; [4]
  % BODY WT LOSS AT NADIR: −4.0%
  % T/C MASS: 0%
  ACTIVITY RATING: ++++ (HIGHLY ACTIVE >2.8)
  DRUG DEATHS: 0/5
  GROWTH DELAY: 56 days
  LOG KILL: 6.7
  TUMOR FREE AT DAY 115: 2/5
